Test results taken from publication doi:10.1101/2025.03.03.641193, “Trihydroxybenzaldoximes are redox cycling inhibitors of ThDP-dependent DXP synthase” (bioRxiv, 2025).

Experiments:
DrDXPS = biological target: T1, DrDXPS (Deinococcus radiodurans, UniProt Q9RUB5); assay: DXPS-IspC coupled assay, DrDXPS; assay type: biochemical, Deinoccocus radiodurans
T1 construct: made in house
Description: (§1) Inhibitory activity of compounds against DXPS were monitored via a continuous spectrophotometric coupled assay with DXPS and IspC as previously described.[41],[42] Briefly, Reaction mixtures containing HEPES (100 mM, pH 8.0), MgCl2 (2 mM), NaCl (5 mM), ThDP (1 mM), BSA (1 mg/mL), DXPS (125–500 nM), IspC (1.7 μM), NADPH (160 μM), DMSO (5%, v/v), and inhibitor (0–200 μM) were preincubated at 25 °C (or chamber temperature 25–30 °C) for 5 min. Enzymatic reactions were initiated via the addition of 20 μL of a 10x substrate mix for a final well volume of 200 μL. Reactions were performed in triplicate unless otherwise noted. See the following sections for details and modifications.
(§2) When varying pyruvate (0–500 μM), GAP was maintained at 50 μM (3 mM for R478A). When varying GAP (0–500 μM), pyruvate was maintained at 500 μM. The following [DXPS] were used when varying 1: WT EcDXPS, R478A, H431A, D427A (200 nM), R99A (500 nM), WT DrDXPS, WT PaDXPS (150 nM). Analogs 3 and 4 were tested using WT EcDXPS (150 nM). Reactions were incubated and initiated as described above. Immediately following initiation, NADPH depletion was monitored at 340 nm at 25 °C for 7–10 min with a 14–20 second time interval. Initial velocities of DXP formation were determined from the linear portion of the NADPH decay. Initial velocities were arithmetically corrected for background for compound 4. Initial velocities were plotted vs. substrate concentration, and the data were fit to equation 1 (mixed model), 2 (competitive), or 3 (uncompetitive) based on the calculated α value and goodness of fit in GraphPad Prism. Reported standard errors of the mean for Kis are calculated from three replicates.

[1] = Steady state CV, gold ultramicroelectrode; assay type: physicochemical; conditions: Tris pH 8, prepared aerobically then deoxygenated, gold UME
Text: To provide additional evidence for DXPS-dependent reduction of 1, we used electrochemistry to continuously monitor the redox state of 1 during the course of a DXPS reaction. For these experiments, we used a gold ultramicroelectrode, which allowed us to observe the steady-state current corresponding to the reduction of 1, under diffusion control, during the progression of the reaction. […] Using Equation 4 (Electrochemical Measurements, Materials and Methods), it was estimated that the observed pseudo steady state current at −0.50 V corresponded to a one-electron transfer reaction. We used this voltage to interrogate the reduction of 1 during reaction with enzyme and substrates. […] Reactions were initiated in the cell via addition of different combinations of DXPS and substrates which were previously deoxygenated in an anaerobic chamber (Fig 9, S26). […] Returning to the CV, when measured after the chemical reaction transpires, the reduction peak nearly vanished as expected (Fig 9, S28).
Reaction solutions were prepared containing 2 mM MgCl2, 100 mM NaCl, 50 mM Tris pH 8, 1 mM ThDP, and 1 (final 1 mM) under aerobic conditions to allow for oxidation of 1. […] Reactions were initiated and mixed via gas tight Hamilton syringe at ~300 s and measured for at least 200 s. […]

PaDXPS = biological target: T2, PaDXPS (Pseudomonas aeruginosa, UniProt Q9KGU7); assay: DXPS-IspC coupled assay, PaDXPS; assay type: biochemical
T2 construct: made in house
T2 sequence (Q9KGU7 whole entry): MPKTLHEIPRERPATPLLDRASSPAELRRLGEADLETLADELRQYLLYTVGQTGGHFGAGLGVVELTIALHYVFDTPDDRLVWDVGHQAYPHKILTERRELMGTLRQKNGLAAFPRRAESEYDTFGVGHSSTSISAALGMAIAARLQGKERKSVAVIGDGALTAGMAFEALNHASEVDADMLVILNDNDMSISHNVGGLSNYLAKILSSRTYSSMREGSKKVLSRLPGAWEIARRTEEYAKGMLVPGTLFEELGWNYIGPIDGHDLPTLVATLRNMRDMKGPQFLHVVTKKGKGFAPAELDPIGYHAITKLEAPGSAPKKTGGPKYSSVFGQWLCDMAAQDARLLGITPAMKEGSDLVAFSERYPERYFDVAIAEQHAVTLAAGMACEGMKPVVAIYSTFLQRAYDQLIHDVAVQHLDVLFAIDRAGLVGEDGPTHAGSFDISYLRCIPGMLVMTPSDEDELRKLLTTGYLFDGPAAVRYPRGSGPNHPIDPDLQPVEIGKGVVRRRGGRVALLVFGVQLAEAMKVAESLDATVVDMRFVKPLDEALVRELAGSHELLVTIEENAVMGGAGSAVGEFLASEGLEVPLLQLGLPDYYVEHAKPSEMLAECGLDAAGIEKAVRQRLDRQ
Description: as §1, §2

[2] = biological target: T3, pyruvate decarboxylase (PDC) (Saccharomyces cerevisiae, UniProt P06169); assay: Inhibition of PDC (ADH coupled assay); assay type: biochemical, S. cerevisiae
T3 construct: purchased Sigma Aldrich P9474; host or cells: baker's yeast
T3 sequence (P06169 2-563): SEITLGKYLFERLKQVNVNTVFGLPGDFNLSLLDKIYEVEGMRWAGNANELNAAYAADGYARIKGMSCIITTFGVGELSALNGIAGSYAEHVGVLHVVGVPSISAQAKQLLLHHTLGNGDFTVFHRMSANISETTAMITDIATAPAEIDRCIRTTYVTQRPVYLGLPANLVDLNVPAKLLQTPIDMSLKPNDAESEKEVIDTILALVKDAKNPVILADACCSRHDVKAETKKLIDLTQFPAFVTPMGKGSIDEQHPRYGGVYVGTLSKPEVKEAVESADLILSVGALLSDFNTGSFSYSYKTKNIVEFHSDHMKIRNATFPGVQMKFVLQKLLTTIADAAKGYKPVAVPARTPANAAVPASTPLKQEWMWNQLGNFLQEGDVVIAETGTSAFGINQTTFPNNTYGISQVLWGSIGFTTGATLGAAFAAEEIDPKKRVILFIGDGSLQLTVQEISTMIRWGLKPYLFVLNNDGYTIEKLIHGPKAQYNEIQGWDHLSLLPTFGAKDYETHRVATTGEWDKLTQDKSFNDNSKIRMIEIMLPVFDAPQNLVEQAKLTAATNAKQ
Description: Reaction conditions were optimized from a previously reported assay.[38] Briefly, reaction mixtures containing MES (100 mM, pH 6.2), MgCl2 (2 mM), ThDP (5 mM), PDC (0.06 U/mL), ADH (16 U/mL), NADH (170 μM), and 1 (0 or 200 μM) were preincubated at 25 °C for 5 min. Enzymatic reactions were initiated via the addition of 20 μL of 10x pyruvate (final 1mM), or water for background controls, for a final well volume of 200 μL. Immediately following initiation, NADH depletion was monitored at 340 nm at 25 °C for 7 min with a 14 second time interval. Initial velocities of acetaldehyde formation were measured and arithmetically corrected for background rates. Standard errors of reported % inhibition values were determined from 3 replicates. pH controls were conducted with phosphate buffer (pH 7 and 8); background subtraction was not performed on these samples. Reported standard errors of the mean for Kis are calculated from three replicates.

T1 sequence (Q9RUB5 whole entry): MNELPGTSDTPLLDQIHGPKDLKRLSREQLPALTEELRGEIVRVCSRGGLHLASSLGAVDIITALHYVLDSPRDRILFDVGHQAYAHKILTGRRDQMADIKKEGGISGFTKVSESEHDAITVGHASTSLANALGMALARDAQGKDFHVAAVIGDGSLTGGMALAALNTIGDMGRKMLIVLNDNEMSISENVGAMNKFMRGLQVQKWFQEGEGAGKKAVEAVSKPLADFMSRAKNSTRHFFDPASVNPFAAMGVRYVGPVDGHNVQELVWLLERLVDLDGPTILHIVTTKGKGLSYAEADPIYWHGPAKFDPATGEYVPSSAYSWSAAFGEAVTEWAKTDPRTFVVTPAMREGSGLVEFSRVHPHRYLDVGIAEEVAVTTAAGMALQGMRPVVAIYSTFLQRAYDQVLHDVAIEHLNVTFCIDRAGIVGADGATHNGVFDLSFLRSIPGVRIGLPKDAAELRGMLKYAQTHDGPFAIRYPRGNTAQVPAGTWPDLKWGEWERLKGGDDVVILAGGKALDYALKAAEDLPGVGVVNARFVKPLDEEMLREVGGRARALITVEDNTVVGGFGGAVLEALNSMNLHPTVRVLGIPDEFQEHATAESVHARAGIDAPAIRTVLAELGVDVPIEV

For `ON=Cc1cc(O)c(O)cc1O` [compound 1, 2,4,5-trihydroxybenzaldoxime], the Ki (DrDXPS) was 2800 ± 200 nM, the “MOI varying D-GAP” value (DrDXPS; DrDXPS) was “competitive” and the MOI varying pyruvate (DrDXPS; DrDXPS) was “uncompetitive”. For the same compound, the “Ki relative to EcDXPS” value (DrDXPS; DrDXPS, varying either pyruvate or D-GAP) was no more than 2 fold, the “reduction half-height potential (steady state CV)” value [1] was ~ −0.35 V and the Ki (PaDXPS) was 16.4 ± 2.2 µM. For the same compound, the “MOI varying D-GAP” value (PaDXPS; PaDXPS) was “competitive”, the MOI varying pyruvate (PaDXPS; PaDXPS) was “uncompetitive” and the “Ki/Ki^EcDXPS” value (PaDXPS; PaDXPS, vary pyruvate, fold reduction in potency) was 3.5. For the same compound, the “Inhibition of PDC at pH 7 or 8” value ([2]; 200 μM, phosphate buffer pH 7 and 8) was “not observed”, the “%Inhibition at 200 μM 1” value ([2]; PDC, MES pH 6.2, 200 μM) was ~ 14% and the inhibition at 200 µM ([2]; pH 6.2, PDC, MES pH 6.2, 200 μM, read-out: %Inhibition at 200 μM 1) was 14.2 ± 2.3%.
